A melting point compilation (Tetko et al.; mined from patent text by program, amines drawn as free bases though some values may be those of a salt)

| melting point | Structure (SMILES) |
| --- | --- |
| 160 to 162 °C | O=C(O)CCCCCCCSc1nc(-c2ccccc2)c(-c2ccccc2)[nH]1 |
| 175 to 179 °C | O=C(Nc1cccc(O)c1)C(=O)N1CCC(Cc2ccc(F)cc2)CC1 |
| 235 to 237 °C | Cc1cc(C)c2ccc(NC(=O)Nc3ccccc3CCc3cc(C(C)(C)C)c(O)c(C(C)(C)C)c3)nc2n1 |
| > 300 °C | O=C(O)C1=Cc2cc(-c3ccc(C(F)(F)F)cc3)ccc2S(=O)(=O)CC1 |
| 150 to 155 °C | O=S(=O)(c1ccc(Cl)cc1)N1CCC[C@@H](Nc2nccc(-c3c(-c4cccc(CO)c4)nc4sccn34)n2)C1 |
| 217 °C | NC(Cc1ccc(C(=O)c2ccccc2)cc1)C(=O)O (racemic) |
| 95 to 105 °C | COC(=O)CCCc1cc2nc(Cl)ccc2n1S(=O)(=O)c1cc(Cl)ccc1Cl |
| 202 to 204 °C | CSC(C)(C(=O)O)c1ccc(N2C(=O)c3ccccc3C2=O)cc1 (stereo unspecified) |
| 99 °C | CCCCCCOC(=O)C=Nc1cc(Cl)ccc1C(=O)O |
| 245 to 246 °C | CC1Nc2cccc3c(O)ccc(c23)S1(=O)=O (stereo unspecified) |
| 149 to 151 °C | O=C(O)c1cccc(COc2cccc(OCc3ccc4ccccc4n3)c2)c1 |
| 157 to 158 °C | CC(=O)c1ccc(S(=O)(=O)NC(C)(C)C(=O)O)cc1 |
| 314 to 316 °C | Cc1ccc(-n2c(-c3cc(C)ccc3C=Cc3ccccc3)ccc2-c2cc(C)ccc2C=Cc2ccccc2)cc1 |
| 160 °C | CC(=O)Nc1cccc(C=O)c1C |
| 70 °C | CCCCC(=O)C(Cc1ccc(C#N)cc1)c1ccccc1 (stereo unspecified) |
| 157 °C | O=C(O)CCC(C(=O)O)N1C(=O)c2ccccc2C1=S (stereo unspecified) |
| 110 to 112 °C | CCOC(=O)c1c(N2CCN(c3ccccc3)CC2)c2ccc(C)nc2n(CC)c1=O |
| 235 to 238 °C | CC(=O)Nc1ccc(C=NNC(N)=S)cc1Cl |
| 135 to 137 °C | O=C(O)CCC(CCC(=O)O)(CCC(=O)O)C(=O)c1ccc(Cl)cc1 |
| 148 °C | CSc1ccc(-c2nn(Cc3cccnc3)c(=O)cc2-c2ccc(Cl)cc2)cc1 |
| 221 to 222 °C | N#Cc1cc(-c2ccnc(Nc3cccc(Cl)c3)n2)ccn1 |
| 314 to 318 °C | COc1ccc(-c2nnc3c4ccccc4c(Nc4cccc(C(=O)Nc5ccc(N(C)C)cc5)c4)nn23)cc1 |
| 178 to 181 °C | Clc1cc(N2CCOCC2)nc(-n2cnc3ccccc32)n1 |
| 188 to 191 °C | COc1ccc(CC(=O)c2cccnc2)cc1OC |
| 160 to 161 °C | CCOC(=O)c1cccc(NC(=O)C=Cc2cc(C(C)C)c(C(C)C)o2)c1 |
| 217 to 218 °C | CN(C)c1ccc2nc3c4ccccc4c(=Nc4ccncc4)cc-3oc2c1 |

| melting point | Structure (SMILES) |
| --- | --- |
| 79 to 81 °C | Cc1c(C)c2c(c(C)c1OCc1ccccc1)C(c1ccc(C(C)C)cc1)C(C)(C)O2 (stereo unspecified) |
| 129 °C | CCCCCCCCNC(=O)Nc1ccccc1C(=O)NC1CCN(Cc2ccccc2)CC1 |
| 194 to 195 °C | Cc1ccccc1CC(C(=O)Nc1cnc(Br)cn1)c1ccc(S(C)(=O)=O)cc1 (stereo unspecified) |
| 72 to 73 °C | FC(F)(F)c1cc(-c2ccc(Cl)cc2)[nH]c1C(F)(F)F |
| 95 to 96 °C | Cn1cccc1C1=CC(=O)c2ccccc2C1=O |
| 112 °C | CCOc1cc(C(C)C)c2c(c1)S(=O)(=O)N(CSc1ccccc1)C2=O |
| 73 to 76 °C | CON=Cc1ccccc1OCc1ccccc1C(=NOC)C(=O)OC |
| 299 °C | O=C(O)c1cnc(-c2ccc(OCc3ccccc3)cc2)nc1 |
| 216 to 222 °C | Nc1cc(=O)nc(Nc2ccccc2)n1-c1ccc(Cl)cc1 |
| 199 to 200 °C | C[C@@H]1CCC[C@H](C)N1Cc1ccc2cc(NC(=O)N3CCC(c4ccc(Cl)cc4)CC3)ccc2c1 |
| 196 °C | Cc1ccc2[nH]c(=O)n(CCCN3CCN(C(c4ccccc4)c4ccccc4)CC3)c2c1 |
| 173 to 175 °C | O=C(O)Cc1ccc2c(c1)C(=O)c1cc(F)ccc1CO2 |
| 244 to 246 °C | CC(=O)Nc1cccc2c1CCNC2=O |
| 180 to 182 °C | CC1(C)C=NC(C(NC(c2ccccc2)(c2ccccc2)c2ccccc2)C(=O)O)S1 (stereo unspecified) |
| 145 to 147 °C | Cc1cn2ccc3c(c2n1)NC(c1ccccc1)C(OC(=O)C(C)(C)C)C3=O (stereo unspecified) |
| 169 to 170 °C | NC(=O)CNC(=O)c1cccc(-c2cccc3cc(Cc4cc(F)cc(C(F)(F)F)c4)sc23)c1 |
| 80 to 81.5 °C | ClC(=NNc1ccccc1)c1cccc(Cl)c1 |
| 248 to 249 °C | CC(C)(C)COc1ccc(N(CC(=O)O)C(=O)c2ccn(-c3ccc(F)cc3)c2)cc1C#N |
| 187 to 190 °C | O=C(O)C1=Cc2cc(S(=O)(=O)NCCc3ccccc3)ccc2OC1C(F)(F)F (stereo unspecified) |
| 225 to 226 °C | FCC(F)(F)Sc1nc(-c2ccccc2)c(-c2ccccc2)[nH]1 |
| 240 to 242 °C | CCOC(=O)c1cc(=O)c2c(ccc3c4ccccc4c(=O)oc32)o1 |
| 149 to 150 °C | CCCOc1ccccc1C(=O)Nc1ccccc1C(N)=O |
| 61 to 62 °C | O=C(CCCS(=O)c1ccccc1)NO (stereo unspecified) |
| 97 to 99 °C | CN(C)C=C(C(=O)OC(C)(C)C)C(=O)c1ccccc1Cl |
| 85.5 to 86.5 °C | O=C(OCc1ccccc1)N1CCN2C(=O)OCC2C1 (racemic) |
| 149 to 152 °C | COc1ccc(Cl)cc1-c1cccc2c1OC(CN)C2 (stereo unspecified) |

The remaining lines, values behind:

| Structure (SMILES) | melting point |
| --- | --- |
| OOC1(OO)C2CC3CC(C2)CC1C3 | 144 to 145 °C |
| CC(C)(C)OC(=O)NCCOCCOCCNC(=O)CCCCC1SCC2NC(=O)NC21 (stereo unspecified) | 106 to 108 °C |
| CCN1c2ncc(CCc3ccc(N(C)S(C)(=O)=O)cc3)cc2C(=O)N(C)c2ccc(Cl)nc21 | 196 to 198 °C |
| CC(=O)OCC(C)(C)C(Cl)CC(Cl)(Cl)Cl (stereo unspecified) | 56 to 58 °C |
| O=C(O)c1ccn2c1C(C(=O)O)CCC2 (stereo unspecified) | 236 to 237 °C |
| N#Cc1ccc(-c2ccc(O)c(-c3nc4cc(C#N)ccc4[nH]3)c2)cc1 | > 340 °C |
| CC(=O)OCC1OC(N=[N+]=[N-])C(OC(C)=O)C(OC(C)=O)C1OC(C)=O (stereo unspecified) | 52 to 53 °C |
| CC(=O)NC(NC(=O)CC(=O)OCc1ccccc1)C(=O)NCc1ccccc1 (stereo unspecified) | 177 to 179 °C |
| COc1c(N)nc(-c2ccc(Cl)c(F)c2F)nc1C(=O)NO | 192 to 194 °C |
| CCCc1nc2c(N)nc3ccccc3c2n1CCCC(=O)N(C)OC | 163 to 165 °C |
| CCCCCCCCc1ccc(N=Nc2ccc(OC(=O)CCOCCCCCCC)cc2)cc1 | 42.1 °C |
| CCCCCCCCCCCCCCCCCCOc1ccc(OCCCOc2ccc(OCc3ccccc3)cc2)c(C(=O)N(CC(=O)O)CC(=O)O)c1 | 70 to 74 °C |
| O=C(O)C1CC(=O)N(c2ccc(O)cc2)C1 (stereo unspecified) | 201 to 204 °C |
| Cc1c(O)ccc2c(=O)c(-c3ccc4c(c3)OCO4)coc12 | 270 to 272 °C |
| CC(C)(C)SC(=O)C=CC1C(C(=O)OC(C#N)c2ccc(F)c(Oc3ccccc3)c2)C1(C)C (stereo unspecified) | 96 °C |
| c1ccc(Cc2nnn[nH]2)c(COc2ccc3oc(-c4nc5c(s4)NCCCC5)cc3c2)c1 | 110 to 118 °C |
| COc1ccccc1Oc1c(NS(=O)(=O)c2ccc(C(C)(C)C)cc2)nc(-c2ncccn2)nc1OCCOc1ccc(C(C)O)cc1 (stereo unspecified) | 191 to 194 °C |
| CCCNC(=S)Nc1sccc1C(=O)OC | 123 to 126 °C |
| OCCSCc1ccc(-c2ccc(CSCCO)cc2)cc1 | 152 °C |
| Cn1c2c(c3cc(O)ccc31)CC(CO)C2 (stereo unspecified) | 153 to 154 °C |
| FC(F)(F)c1n[nH]c(-c2nc3ccccc3[nH]2)n1 | 247 °C |
| COc1cc(CNC(C)=O)c(Br)cc1O | > 300 °C |
| Cc1nc2cc(-c3ccnc(-c4cn(C)c(=O)n4-c4ccc(C(C)(C)C#N)cc4)c3)cnc2[nH]1 | 288 °C |
| CNC(=O)N(O)Cc1ccc(Br)cc1 | 165 to 167 °C |
| CC1(C)C(=O)C(C)(C)c2cc3[nH]c(S)nc3cc21 | > 300 °C |

| Structure (SMILES) | melting point |
| --- | --- |
| CCc1ccc2[nH]c(=O)[nH]c(=O)c2c1 | 271 to 274 °C |
| CN(C)CCCC(=O)OC[C@@H]1CC(c2ccc(-c3ccc(N4C[C@H](Cn5ccnn5)OC4=O)cc3F)cn2)=NO1 | 148 °C |
| Cc1ccccc1-c1ccc2c(c1)c(C(=O)C(=O)O)cn2Cc1ccc(C(C)(C)C)cc1 | 97 to 98 °C |
| CCOC(=O)C1=C(C)Nc2nc(N3CCOCC3)nc(N3CCOCC3)c2C1c1ccccc1C(F)(F)F (stereo unspecified) | 214 °C |
| Cc1sc(C(=O)O)cc1CC#N | 196 to 198 °C |
| CCN(C)C(=O)NC(=N)SC | 74 to 76 °C |
| CCCCCC1CCC(CCC2OCC(CCC)CO2)CC1 (stereo unspecified) | 44 °C |
| [N-]=[N+]=NCc1ccc(C(=O)O)c(Cl)c1 | 87 to 88 °C |
| CCOC(=O)c1cnc2c(c(C)nn2CC)c1Cl | 70 to 74 °C |
| O=C(N[C@H]1CC[C@H](CCN2CCC(c3ccc(F)c4occc34)CC2)CC1)C1CCOCC1 | 208 °C |
| FC(F)(F)C(F)(F)C(F)(F)C(F)(F)C(F)(F)C(F)(F)C(F)(F)C(F)(F)C(F)(F)C(F)(F)C(F)(F)Br | 96 to 98 °C |
| COC(=O)c1ccc2cc(CCCCc3cc4ccc(C(=O)OC)cc4o3)oc2c1 | 130 to 131 °C |
| COc1ccc(Cl)c(OC)c1C(=O)O | 132 to 133 °C |
| Cc1nc2c(-c3cccc(N4CCC(N5CCCC5)CC4)c3)cnn2c(N)c1-c1ccc(F)cc1 | 244 to 249 °C |
| CC1Cc2cc(Br)ccc2C1=O (stereo unspecified) | 55 °C |
| CCCC1CCC(C2CCC(OCCCO)CC2)CC1 (stereo unspecified) | 110 to 111 °C |
| C#CC12CC3CC(CC(C3)C1)C2 | 80 to 82 °C |
| Fc1ccc(-c2cncc(CN3CCN(c4ncccn4)CC3)c2)cc1 | 97 to 98 °C |
| COC(=O)c1ccc(C(=O)OC)c(S(N)(=O)=O)c1 | 165 to 170 °C |
| CC1(CCS)CN2CCCC(C(=O)O)N2C1=O (stereo unspecified) | 119 to 122 °C |
| COc1ccc2ncc3c(c2c1)C(O)CCC3 (stereo unspecified) | 190 °C |
| CNCCC1=C(C#N)C(c2cccc3nonc23)c2c[nH]nc2N1 (stereo unspecified) | 174 °C |
| OC(c1ccc(F)cc1)(c1ccc(F)cc1)C1SCSCS1 | 124 to 125 °C |
| CN1C(c2cccnc2)CC(=O)CC1c1cccnc1 (stereo unspecified) | 103 to 106 °C |
